Experimental findings from PubChem BioAssay (NCI) are described below.

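All cell lines were grown in 96-well plates and treated with compound for 48 hours. Abbreviation: GI50, concentration required for 50% inhibition of growth. Definition used: TGI = concentration required for complete inhibition of growth.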

Among the test systems are SF-539 CNS; UACC-257 melanoma; HCT-116 colon; HT29 colon; A549 NSCLC; A498 renal; RXF 393 renal; TK-10 renal; SK-MEL-2 melanoma; M14 melanoma; RPMI-8226 leukemia; LOX IMVI melanoma; SW-620 colon.
Assay in all cases: inhibition of tumour cell growth, NCI panel, 48 h

In the case of `COc1c(-c2ccc(F)cc2)oc2c(CC(=O)O)cccc2c1=O`, the TGI with SF-539 CNS, in the test with UACC-257 melanoma, in the test on HCT-116 colon, in the test with HT29 colon, in the test on A549 NSCLC and in the test with A498 renal was over 100 µM throughout. Besides, the TGI in the test with RXF 393 renal, with TK-10 renal, with SK-MEL-2 melanoma and with M14 melanoma was over 100 µM in each case.

For the molecule `COc1cc(Cn2c3ccccc3c3cc(C)cc(OC)c32)cc2c1[nH]c1ccccc12`, the GI50 in the test with SF-539 CNS is 9.83 µM; in the test with LOX IMVI melanoma, 8.19 µM; with HT29 colon it was 16.9 µM; with A549 NSCLC, 23.2 µM; in the test with SW-620 colon, 13.4 µM; with M14 melanoma, 6.27 µM. The TGI with SF-539 CNS, in the test with RPMI-8226 leukemia, with LOX IMVI melanoma, with HCT-116 colon, in the test with HT29 colon and with A549 NSCLC was over 25 µM throughout. Besides, the TGI with TK-10 renal is over 25 µM; in the test on SW-620 colon, over 25 µM; in the test on SK-MEL-2 melanoma it was over 25 µM; in the test on M14 melanoma, 20.2 µM.

For the molecule `COc1c(N2CCCCC2)c2c(=O)c3ccccc3oc2c2c3ccccc3n(C)c12`, the TGI in the test with SF-539 CNS, in the test with RPMI-8226 leukemia, in the test on LOX IMVI melanoma, in the test on UACC-257 melanoma, in the test on HCT-116 colon and in the test on HT29 colon was over 100 µM throughout. The TGI in the test with A549 NSCLC, with RXF 393 renal, in the test with TK-10 renal, in the test on SW-620 colon, in the test with SK-MEL-2 melanoma and with M14 melanoma was over 100 µM each time.

For `O=C(O)c1ccc(Nc2nc3ccc(C(F)(F)F)cc3nc2C(=O)O)cc1`, the TGI in the test on SF-539 CNS, with RPMI-8226 leukemia, with LOX IMVI melanoma, with UACC-257 melanoma, in the test with HCT-116 colon and in the test on HT29 colon was over 100 µM throughout. The TGI in the test on A549 NSCLC, with RXF 393 renal, in the test on TK-10 renal, in the test on SW-620 colon, in the test on SK-MEL-2 melanoma and in the test with M14 melanoma was over 100 µM each time.

Regarding `CC1=NC(=O)CNN1C1=NNC2(C(=O)N1)c1ccccc1-c1ccccc12`, the TGI in the test on SF-539 CNS, in the test with LOX IMVI melanoma, with UACC-257 melanoma, with HCT-116 colon, in the test with HT29 colon and in the test on A549 NSCLC was over 100 µM in each case. The TGI in the test with A498 renal, in the test with RXF 393 renal, in the test with TK-10 renal, with SW-620 colon, in the test with SK-MEL-2 melanoma and in the test with M14 melanoma was over 100 µM throughout.

`CN(CCO)c1nc(=O)c2c(n1C1OC(CO)C(O)C(O)C1O)CCCC2` (stereo not given): the TGI in the test with SF-539 CNS, with RPMI-8226 leukemia, with LOX IMVI melanoma, in the test on UACC-257 melanoma, in the test on HCT-116 colon and in the test with HT29 colon was over 100 µM each time. In addition, the TGI with A549 NSCLC, in the test with RXF 393 renal, with TK-10 renal, in the test on SW-620 colon, in the test on SK-MEL-2 melanoma and in the test on M14 melanoma was over 100 µM each time.

On to `CC(C)OP(=O)(OC(C)C)/C(=N/Nc1ccc([N+](=O)[O-])cc1)NNC(=O)c1ccccc1`, for which the TGI with SF-539 CNS was over 100 µM; with RPMI-8226 leukemia, over 100 µM; in the test on LOX IMVI melanoma it was 70.8 µM; in the test with UACC-257 melanoma, over 100 µM; with HCT-116 colon, over 100 µM; in the test with A549 NSCLC, over 100 µM. The TGI with TK-10 renal, in the test with SW-620 colon, in the test on SK-MEL-2 melanoma and in the test on M14 melanoma was over 100 µM in each case.

With `O=C1Nc2n[nH]c(=S)n2NC12c1ccccc1-c1ccccc12`, the TGI in the test with SF-539 CNS is over 100 µM; in the test on LOX IMVI melanoma, over 100 µM; in the test with UACC-257 melanoma, 48.4 µM; with HCT-116 colon, 93.6 µM; with HT29 colon it was over 100 µM; with A549 NSCLC, over 100 µM. Also, the TGI in the test with A498 renal, in the test with RXF 393 renal, in the test with TK-10 renal, in the test with SW-620 colon, with SK-MEL-2 melanoma and in the test with M14 melanoma was over 100 µM in each case.

With `COC(=O)N1C2C(C[C@@]1(C)C(=O)OC)c1ccccc1N2S(=O)(=O)c1ccccc1` (stereo not given in full), the TGI with RPMI-8226 leukemia, in the test with LOX IMVI melanoma, in the test on UACC-257 melanoma, in the test on HCT-116 colon, in the test on HT29 colon and in the test on A549 NSCLC was over 100 µM in each case. The TGI with RXF 393 renal, in the test with TK-10 renal, with SW-620 colon, with SK-MEL-2 melanoma and in the test on M14 melanoma was over 100 µM throughout.

As for `CC1=C(C(=O)NNC(=O)c2ccccc2O)CC(C(=O)NNC(=O)c2ccccc2O)=C(C)N1`, the TGI in the test on SF-539 CNS is 41.8 µM; with RPMI-8226 leukemia, over 100 µM; in the test with LOX IMVI melanoma it was over 100 µM; in the test with UACC-257 melanoma it was over 100 µM; with HCT-116 colon, over 51.5 µM; in the test on HT29 colon it was over 100 µM. In addition, the TGI in the test on A549 NSCLC is over 100 µM; in the test with RXF 393 renal it was over 100 µM; with TK-10 renal, over 100 µM; with SW-620 colon, over 100 µM; with SK-MEL-2 melanoma, over 100 µM; in the test with M14 melanoma, over 76 µM.

For the molecule `O=C(O)CCC1(CCC(=O)O)CCCCCCCCC(CCC(=O)O)(CCC(=O)O)C(=O)C1=O`, the TGI in the test on SF-539 CNS, with RPMI-8226 leukemia, in the test with LOX IMVI melanoma, in the test on UACC-257 melanoma, in the test on HCT-116 colon and in the test with HT29 colon was over 100 µM throughout. The TGI in the test on A549 NSCLC, with TK-10 renal, in the test on SW-620 colon, in the test on SK-MEL-2 melanoma and with M14 melanoma was over 100 µM throughout.
